How the values were obtained:
[1] = QCM-D adsorption of zwitterionic molecules; assay type: physicochemical; settings: silica
Description: Quartz Crystal Microbalance (QCM): Adsorption of the molecules on different surfaces such as silica, SiO2, (FIGS. 7A-7E) and titania, TiO2, (FIGS. 8A-8E) was also explored by the quartz crystal microbalance (QCM) and confocal fluorescence microscopy after rhodamine staining (FIG. 27A-27B). Quartz crystal microbalance with dissipation (QCM-D): A “static cell” (often called “Open Model”) QCM-D (Q-Sense, Biolin Scientific) was employed to qualitatively show the adsorption of the zwitterionic molecules onto mineral and metal oxide surfaces. 50 μl of 5 mM zwitterionic solution was deposited onto TiO2 and SiO2 surface, respectively, in DI H2O (100 μl) using a static cell via two-step adsorption. […] However, a quantitative discussion regarding the adsorbed mass (frequency shift) and the viscoelastic properties (dissipation) of the adsorbed “soft” layers is challenging because the mass of the zwitterionic molecules cannot be separated from the mass of adsorbed water. […]
Quartz crystal microbalance with dissipation (QCM-D) is an extension to the QCM technique developed by Q-Sense® and can be used to determine the rigidity/softness and the viscoelastic properties of the adsorbed material. The QCM quartz crystal was coated with different rigid materials (e.g., metals, polymers, dielectrics) and the adsorption kinetics can be monitored on these materials in liquid environment. […]

[2] = OFET characterization (saturation hole mobility); settings: Au source and drain electrodes
Description: The OFETs were fabricated onto nano-grooved SiO2 substrates prepared by rubbing n^++Si (500 μm)/SiO2 (300 nm) substrate (International Wafer Services Co.) with a diamond lapping disc with particle sizes of 100 nm (Allied High Tech Products Inc.) as described in detail in the previous reports. The Ni (5 nm)/Au (50 nm) source and drain electrodes were patterned on the SiO2 dielectrics through a conventional photolithography process. For OFETs with Ni source and drain electrodes, an additional Ni (10 nm) layer was deposited on top of the pre-deposited Au electrodes. All metal electrodes were deposited by electron beam evaporation at 7×10^−7 Torr. Then, the substrates were sonicated in acetone and isopropanol for cleaning, and were kept in an oven at >100° C. for overnight. After ultraviolet/ozone treatment of pre-cleaned nano-grooved SiO2 substrates for 10 min, the substrates were passivated with the Z-Cat-Ben or Z-Cat-Ben-F SAM by dropping SAM water solution (5 mM) onto the substrates for ˜1 min. The substrates were subsequently rinsed with deionized water for ˜1 min, and were kept in a low vacuum for 10 min to remove residual water. The PCDTPT (1-Material Inc.) was then cast from a chlorobenzene solution (0.25 mg mL^−1) through the sandwich casting in a nitrogen-filled glove box. The devices were then cured at 200° C. for 1 min prior to measurements, and were tested using a probe station (Signatone Co.) in a nitrogen-filled glove box. Data were collected by a Keithley 4200 system.
The field-effect mobilities in the saturation regime were extracted using the following equation, IDS=(W/2L)Cμ(VGS−VT)^2 (7) where, W is the channel width, L is the channel length, C is the gate dielectric capacitance per unit area, μ is the carrier mobility in the saturation regime, IDS is the drain-source current, and VGS is the gate-source voltage. Channel width/length is 1000/200 μm for the devices used in this study. Transistor Characteristics of OFETs with Z-Cat-Ben and Z-Cat-Ben-F: Contact Angle Measurements: […]

[3] = AFM force between Z-Cat-Ben SAM on silica and a silica bead; assay type: physicochemical; settings: SAM on silica from 5 mM
Description: The pristine self-assemble of the Z-Cat-Ben molecules on silica surface exposed the aromatic residues to the air-water interface resulting in a low interfacial energy between a silica bead and the SAM surface as measured with the AFM technique (Wad˜0.07 mJ/m^2, see FIG. 47). This is unlike the strong adhesion of SAMs exposing catechol residues to the air water interface that bind to silica surface through hydrogen bonding interactions (Wad˜7.7 mJ/m^2).

[4] = Critical aggregation concentration by Wilhelmy plate tensiometry; assay type: physicochemical; settings: DI water
Method: Aqueous colloidal dispersions of each homolog were prepared in deoxygenated deionized (DI) water. The critical aggregation concentration (CAC) was determined from the solution surface tension of varying homolog concentrations in deionized (DI) water (e.g., see the red line of Z-Cat-C10 in FIG. 2B) by Wilhelmy plate tensiometry and has been described elsewhere. Use of the CAC instead of CMC here is a hedge to accommodate the uncertainty about whether micelles or other soluble aggregates were forming.
Aqueous colloidal dispersions of each homolog were prepared in deoxygenated deionized (DI) water. The critical aggregation concentration (CAC) was determined from the solution surface tension of varying homolog concentrations in deionized (DI) water (e.g., see the line of Z-Cat-C10 in FIG. 2B) by Wilhelmy plate tensiometry and has been described elsewhere. Use of the CAC instead of CMC here is a hedge to accommodate the uncertainty about whether micelles or other soluble aggregates were forming.

Q: Which results are given for `C[N+](C)(CCCc1ccccc1)CCOP(=O)([O-])OCCCc1ccc(O)c(O)c1` [Z-Cat-Ben]?
A: adsorbed mass ([1]; 5 mM, zero applied pressure): 85 ng/cm^2; adsorbed layer thickness ([1]; Voigt model): 1 nm; saturation hole mobility μ [2]: 22±4 cm^2 V^−1 s^−1; interfacial energy Wad between silica bead and SAM [3]: ~0.07 mJ/m^2

Q: With `CN(C)CCOP(=O)(O)OCCCc1ccc(O)c(O)c1` [Z-Cat-C10] as the compound, how does the “critical aggregation concentration (CAC), rank” value [4] read?
A: Its value is “lowest CAC among the homologs”.

— patent US12415939B2, “Nano-adhesive and surface primer compound and use thereof” (The Regents of the University of California, priority 2015, dated 2025)
